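Values below derive from 48-hour exposures of cells grown in 96-well plates, with endpoints linearly interpolated between the two concentrations bracketing the appropriate inhibition level. TGI is the concentration that stops growth completely.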
Key:
Experiment in all cases: NCI-60 cell line screen, 48 h
MALME-3M melanoma = system: MALME-3M melanoma
NCI/ADR-RES ovarian = system: NCI/ADR-RES ovarian
HCC-2998 colon = system: HCC-2998 colon
NCI-H23 lung = system: NCI-H23 lung
NCI-H460 lung = system: NCI-H460 lung
K-562 leukemia = system: K-562 leukemia
SK-MEL-5 melanoma = system: SK-MEL-5 melanoma
OVCAR-5 ovarian = system: OVCAR-5 ovarian
OVCAR-8 ovarian = system: OVCAR-8 ovarian
KM12 colon = system: KM12 colon
SF-295 CNS = system: SF-295 CNS
SK-OV-3 ovarian = system: SK-OV-3 ovarian
HS 578T breast = system: HS 578T breast
MCF7 breast = system: MCF7 breast
HT29 colon = system: HT29 colon
SW-620 colon = system: SW-620 colon
UO-31 renal = system: UO-31 renal
HOP-62 NSCLC = system: HOP-62 NSCLC
BT-549 breast = system: BT-549 breast
T-47D breast = system: T-47D breast
CCRF-CEM leukemia = system: CCRF-CEM leukemia
SK-MEL-28 melanoma = system: SK-MEL-28 melanoma
SNB-19 CNS = system: SNB-19 CNS
SNB-75 CNS = system: SNB-75 CNS
MDA-N = system: MDA-N
SN12C renal = system: SN12C renal
EKVX NSCLC = system: EKVX NSCLC
NCI-H522 lung = system: NCI-H522 lung
HCT-15 colon = system: HCT-15 colon
PC-3 prostate = system: PC-3 prostate
UACC-257 melanoma = system: UACC-257 melanoma
UACC-62 melanoma = system: UACC-62 melanoma
RXF 393 renal = system: RXF 393 renal
M14 melanoma = system: M14 melanoma
DU-145 prostate = system: DU-145 prostate
IGROV1 ovarian = system: IGROV1 ovarian
ACHN renal = system: ACHN renal
786-0 renal = system: 786-0 renal
MDA-MB-435 = system: MDA-MB-435
A549 NSCLC = system: A549 NSCLC
COLO 205 colon = system: COLO 205 colon
A498 renal = system: A498 renal
SK-MEL-2 melanoma = system: SK-MEL-2 melanoma
HCT-116 colon = system: HCT-116 colon
MDA-MB-231 breast = system: MDA-MB-231 breast
TK-10 renal = system: TK-10 renal
RPMI-8226 leukemia = system: RPMI-8226 leukemia
SR leukemia = system: SR leukemia
OVCAR-4 ovarian = system: OVCAR-4 ovarian
NCI-H226 lung = system: NCI-H226 lung
LOX IMVI melanoma = system: LOX IMVI melanoma
U251 CNS = system: U251 CNS
HL-60(TB) leukemia = system: HL-60(TB) leukemia
OVCAR-3 ovarian = system: OVCAR-3 ovarian
MOLT-4 leukemia = system: MOLT-4 leukemia
SF-268 CNS = system: SF-268 CNS
CAKI-1 renal = system: CAKI-1 renal
HOP-92 NSCLC = system: HOP-92 NSCLC
SF-539 CNS = system: SF-539 CNS

Structure (SMILES): O=C(O)c1c(-c2ccccc2)c(=O)[nH]c2ccccc12
- TGI (MALME-3M melanoma): > 100 µM
- TGI (NCI/ADR-RES ovarian): > 100 µM
- TGI (HCC-2998 colon): > 100 µM
- TGI (NCI-H23 lung): > 100 µM
- TGI (NCI-H460 lung): > 100 µM
- TGI (K-562 leukemia): > 100 µM
- TGI (SK-MEL-5 melanoma): > 100 µM
- TGI (OVCAR-5 ovarian): > 100 µM
- TGI (OVCAR-8 ovarian): > 100 µM
- TGI (KM12 colon): > 100 µM
- TGI (SF-295 CNS): > 100 µM
- TGI (SK-OV-3 ovarian): > 100 µM
- TGI (HS 578T breast): > 100 µM
- TGI (MCF7 breast): > 100 µM
- TGI (HT29 colon): > 100 µM
- TGI (SW-620 colon): > 100 µM
- TGI (UO-31 renal): > 100 µM
- TGI (HOP-62 NSCLC): > 100 µM
- TGI (BT-549 breast): > 100 µM
- TGI (T-47D breast): > 100 µM
- TGI (CCRF-CEM leukemia): > 100 µM
- TGI (SK-MEL-28 melanoma): > 100 µM
- TGI (SNB-19 CNS): > 100 µM
- TGI (SNB-75 CNS): > 100 µM
- TGI (MDA-N): > 100 µM
- TGI (SN12C renal): > 100 µM
- TGI (EKVX NSCLC): > 100 µM
- TGI (NCI-H522 lung): > 100 µM
- TGI (HCT-15 colon): > 100 µM
- TGI (PC-3 prostate): > 100 µM
- TGI (UACC-257 melanoma): > 100 µM
- TGI (UACC-62 melanoma): > 100 µM
- TGI (RXF 393 renal): > 100 µM
- TGI (M14 melanoma): > 100 µM
- TGI (DU-145 prostate): > 100 µM
- TGI (IGROV1 ovarian): > 100 µM
- TGI (ACHN renal): > 100 µM
- TGI (786-0 renal): > 100 µM
- TGI (MDA-MB-435): > 100 µM
- TGI (A549 NSCLC): > 100 µM
- TGI (COLO 205 colon): > 100 µM
- TGI (A498 renal): > 100 µM
- TGI (SK-MEL-2 melanoma): > 100 µM
- TGI (HCT-116 colon): > 100 µM
- TGI (MDA-MB-231 breast): > 100 µM
- TGI (TK-10 renal): > 100 µM
- TGI (RPMI-8226 leukemia): > 100 µM
- TGI (SR leukemia): > 100 µM
- TGI (OVCAR-4 ovarian): > 100 µM
- TGI (NCI-H226 lung): > 100 µM
- TGI (LOX IMVI melanoma): > 100 µM
- TGI (U251 CNS): > 100 µM
- TGI (HL-60(TB) leukemia): > 100 µM
- TGI (OVCAR-3 ovarian): > 100 µM
- TGI (MOLT-4 leukemia): > 100 µM
- TGI (SF-268 CNS): > 100 µM

Structure (SMILES): CC1C2C=CC1C(c1c3ccc(=O)c(O)c-3oc3c(O)c(O)ccc13)C2C(=O)O (configuration not stated)
- TGI (NCI/ADR-RES ovarian): > 100 µM
- TGI (HCC-2998 colon): > 100 µM
- TGI (NCI-H23 lung): > 100 µM
- TGI (NCI-H460 lung): > 100 µM
- TGI (K-562 leukemia): 45.8 µM
- TGI (SK-MEL-5 melanoma): > 100 µM
- TGI (OVCAR-5 ovarian): > 100 µM
- TGI (OVCAR-8 ovarian): > 100 µM
- TGI (KM12 colon): > 100 µM
- TGI (SF-295 CNS): > 100 µM
- TGI (SK-OV-3 ovarian): > 100 µM
- TGI (HS 578T breast): > 100 µM
- TGI (MCF7 breast): 40.8 µM
- TGI (HT29 colon): > 100 µM
- TGI (SW-620 colon): > 100 µM
- TGI (UO-31 renal): > 100 µM
- TGI (HOP-62 NSCLC): > 100 µM
- TGI (BT-549 breast): > 100 µM
- TGI (T-47D breast): > 100 µM
- TGI (CCRF-CEM leukemia): 7.38 µM
- TGI (SK-MEL-28 melanoma): > 100 µM
- TGI (SNB-19 CNS): > 100 µM
- TGI (MDA-N): 45.9 µM
- TGI (SN12C renal): 51.1 µM
- TGI (EKVX NSCLC): > 100 µM
- TGI (HCT-15 colon): > 100 µM
- TGI (PC-3 prostate): > 100 µM
- TGI (CAKI-1 renal): > 100 µM
- TGI (UACC-257 melanoma): > 100 µM
- TGI (UACC-62 melanoma): > 100 µM
- TGI (RXF 393 renal): > 100 µM
- TGI (M14 melanoma): > 100 µM
- TGI (DU-145 prostate): > 100 µM
- TGI (IGROV1 ovarian): > 100 µM
- TGI (HOP-92 NSCLC): > 100 µM
- TGI (ACHN renal): > 100 µM
- TGI (786-0 renal): > 100 µM
- TGI (MDA-MB-435): 36.2 µM
- TGI (A549 NSCLC): > 100 µM
- TGI (COLO 205 colon): > 100 µM
- TGI (A498 renal): > 100 µM
- TGI (SK-MEL-2 melanoma): > 100 µM
- TGI (HCT-116 colon): 69.7 µM
- TGI (MDA-MB-231 breast): > 100 µM
- TGI (TK-10 renal): > 100 µM
- TGI (RPMI-8226 leukemia): 59.5 µM
- TGI (SR leukemia): > 100 µM
- TGI (OVCAR-4 ovarian): > 100 µM
- TGI (NCI-H226 lung): 86.5 µM
- TGI (LOX IMVI melanoma): 49.1 µM
- TGI (U251 CNS): > 100 µM
- TGI (HL-60(TB) leukemia): > 100 µM
- TGI (OVCAR-3 ovarian): > 100 µM
- TGI (MOLT-4 leukemia): 56.4 µM
- TGI (SF-268 CNS): > 100 µM

Structure (SMILES): Cc1cn(CCCCCCOC(=O)NC(CCCN=C(N)N)C(=O)O)c(=O)[nH]c1=O (configuration not stated)
- TGI (NCI/ADR-RES ovarian): > 100 µM
- TGI (HCC-2998 colon): > 100 µM
- TGI (NCI-H23 lung): > 100 µM
- TGI (NCI-H460 lung): > 100 µM
- TGI (K-562 leukemia): > 100 µM
- TGI (OVCAR-5 ovarian): > 100 µM
- TGI (OVCAR-8 ovarian): > 100 µM
- TGI (KM12 colon): > 100 µM
- TGI (SF-295 CNS): > 100 µM
- TGI (SF-539 CNS): > 100 µM
- TGI (SK-OV-3 ovarian): > 100 µM
- TGI (HS 578T breast): > 100 µM
- TGI (MCF7 breast): > 100 µM
- TGI (HT29 colon): > 100 µM
- TGI (SW-620 colon): > 100 µM
- TGI (UO-31 renal): > 100 µM
- TGI (HOP-62 NSCLC): > 100 µM
- TGI (BT-549 breast): > 100 µM
- TGI (T-47D breast): > 100 µM
- TGI (CCRF-CEM leukemia): > 100 µM
- TGI (SK-MEL-28 melanoma): > 100 µM
- TGI (SNB-19 CNS): > 100 µM
- TGI (SNB-75 CNS): > 100 µM
- TGI (MDA-N): > 100 µM
- TGI (SN12C renal): > 100 µM
- TGI (EKVX NSCLC): > 100 µM
- TGI (HCT-15 colon): > 100 µM
- TGI (PC-3 prostate): > 100 µM
- TGI (CAKI-1 renal): > 100 µM
- TGI (UACC-257 melanoma): > 100 µM
- TGI (UACC-62 melanoma): > 100 µM
- TGI (RXF 393 renal): > 100 µM
- TGI (M14 melanoma): > 100 µM
- TGI (DU-145 prostate): > 100 µM
- TGI (IGROV1 ovarian): > 100 µM
- TGI (HOP-92 NSCLC): > 100 µM
- TGI (ACHN renal): > 100 µM
- TGI (786-0 renal): > 100 µM
- TGI (MDA-MB-435): > 100 µM
- TGI (A549 NSCLC): > 100 µM
- TGI (COLO 205 colon): > 100 µM
- TGI (A498 renal): > 100 µM
- TGI (SK-MEL-2 melanoma): > 100 µM
- TGI (HCT-116 colon): > 100 µM
- TGI (MDA-MB-231 breast): > 100 µM
- TGI (TK-10 renal): > 100 µM
- TGI (RPMI-8226 leukemia): > 100 µM
- TGI (SR leukemia): > 100 µM
- TGI (OVCAR-4 ovarian): > 100 µM
- TGI (NCI-H226 lung): > 100 µM
- TGI (LOX IMVI melanoma): > 100 µM
- TGI (U251 CNS): > 100 µM
- TGI (HL-60(TB) leukemia): > 100 µM
- TGI (OVCAR-3 ovarian): > 100 µM
- TGI (MOLT-4 leukemia): > 100 µM
- TGI (SF-268 CNS): > 100 µM
